Laboratory results: patent publication US20220378740A1, “COMPOSITIONS AND METHODS OF MAKING EXPANDED HEMATOPOIETIC STEM CELLS USING DERIVATIVES OF CARBAZOLE” (Transfusion Health, LLC, priority 2019, published 2022)

Columns and labels:
[1] = test system: CD34+ cells from cord blood; test: Expansion of cord blood-derived CD34+ cells in culture, fold change days 1 to 7 (flow cytometry); assay type: cell-based, human; conditions: relative to vehicle control (DMSO), 3% oxygen
Method: (§1) CD34+ cells from cord blood were purchased from STEMCELL Technologies. Primary human CD34+ cells were isolated by the supplier from cord blood samples using positive immunomagnetic separation techniques. Cells were thawed and gradually brought to room temperature. Samples were washed, then placed in overnight culture in StemSpan with 100 ng/ml each of FLT3L, TPO, SCF, and IL-6. Eighteen to twenty-four hours later (day 1), cells were counted and immunophenotyped (flow cytometry on an Invitrogen Attune N×T cytometer).
Approximately 1000 live cells were plated into each well of 96-well plates (total volume 200 μl); exact cell numbers dispensed per well were quantified with flow cytometry for later calculations.
Media for testing compounds of Formula I, except for compound 2.015, was prepared using StemSpan SFEM (STEMCELL Technologies). Media for testing compound 2.015 was prepared using Alpha-MEM without phenol red (Gibco) with 10% (v/v) heat inactivated fetal bovine serum (FBS). All other treatments are the same for all tested compounds. Culture conditions also included an antibiotic solution that includes penicillin, streptomycin, and amphotericin B to avoid contamination. Additional media components and concentrations used for the compounds tested are described in Table 2.
(§2) All incubations for this experiment took place at 3%˜ oxygen (controlled by nitrogen) and […]. Following seven days of culture, cells from wells were collected and phenotypes were analyzed (flow cytometry on an Invitrogen Attune N×T cytometer).
The graphs in FIG. 1-5 report the fold change in cells between days 1 and 7. Each point in the figures reports the average fold change of the indicated number of replicates at the noted concentration of the compound of Formula I tested. Error bars display the maximum and minimum fold change measured at that concentration. The dashed line reports the expansive effect of the base conditions (i.e. vehicle control).
Table 3, below, summarizes the relative expansive effects of Compounds 2.001 to 2.004 and 2.015 at the indicated concentration. It is calculated as shown below: […]

[2] = test system: HSCs derived from cord blood; test: Long-term (14 day) expansion of hematopoietic stem cells derived from cord blood; assay type: cell-based, human; conditions: 14 days in culture; Compound 2.001 at 10 μM, Compound 2.002 at 1 μM, Compound 2.003 at 10 μM
Method: as §1, §2
Cells were cultured to seven days as described in Example 5. Following seven days in culture, 25% of cells from selected wells were passaged to 12-well plates (2 ml total volume), with conditions for these wells prepared as on day 1. Wells selected were: Compound 2.001 at 10 μM, Compound 2.002 at 1 μM, Compound 2.003 at 10 μM, and base conditions with vehicle control (DMSO). Cells were then allowed seven further days of expansion prior to analysis at day 14. Cell numbers calculated at day 14 account for the passaging of the cells at day seven.

[3] = 3.162 μM compound, StemSpan SFEM
[4] = 2.819 μM compound, Alpha-MEM without phenol red with 10% FBS

| SMILES | expansion of HSCs from cord blood in extended culture [2] | CD34 effect (relative expansive effect on CD34+ cells) ([1]; 1 μM compound, StemSpan SFEM) | CD90 effect (relative expansive effect on CD34+/CD133+/CD90+ cells) ([1]; 1 μM compound, StemSpan SFEM) | other results |
| --- | --- | --- | --- | --- |
| CC(=O)Nc1ccc2c(c1)[nH]c1ccccc12 [Compound 2.001, N-(9H-carbazol-2-yl)acetamide] | expand HSCs from cord blood for at least 14 days in culture |  |  | CD34 effect (relative expansive effect on CD34+ cells) ([1]; 10 μM compound, StemSpan SFEM): ++++ (1.8 ≤ × < 2.2); CD90 effect (relative expansive effect on CD34+/CD133+/CD90+ cells) ([1]; 10 μM compound, StemSpan SFEM): +++++ (2.2 ≤×) |
| CC(C)(C)C(=O)Nc1ccc2c(c1)[nH]c1ccccc12 [Compound 2.002, N-(9H-carbazol-2-yl)-2,2-dimethylpropanamide] | expand HSCs from cord blood for at least 14 days in culture | ++++ (1.8 ≤ × < 2.2) | ++++ (1.8 ≤ × < 2.2) |  |
| CC(=O)Nc1ccc2c(c1)oc1ccccc12 [Compound 2.003, N-{8-oxatricyclo[7.4.0.0^2,7]trideca-1(13),2(7),3,5,9,11-hexaen-5-yl}acetamide] | expand HSCs from cord blood for at least 14 days in culture |  |  | CD34 effect (relative expansive effect on CD34+ cells) [1, 3]: ++++ (1.8 ≤ × < 2.2); CD90 effect (relative expansive effect on CD34+/CD133+/CD90+ cells) [1, 3]: ++++ (1.8 ≤ × < 2.2) |
| CC(C)(C)C(=O)Nc1ccc2c(c1)oc1ccccc12 [Compound 2.004, 2,2-dimethyl-N-{8-oxatricyclo[7.4.0.0^2,7]trideca-1(13),2(7),3,5,9,11-hexaen-5-yl}propanamide] |  | +++ (1.6 ≤ × < 1.8) | ++ (1.2 ≤ × < 1.6) |  |
| COc1cc2c(cc1N)oc1ccccc12 [Compound 2.015] |  |  |  | CD34 effect (relative expansive effect on CD34+ cells) [1, 4]: + (1 < × < 1.2); CD90 effect (relative expansive effect on CD34+/CD133+/CD90+ cells) [1, 4]: + (1 < × < 1.2) |
